Like-named read-outs stand apart in the source and are kept apart here.
Columns and labels:
[1] = system: nematodes (Pratylenchus spp.); settings: tomato; for % yield increase over check / Total average weight of tomatoes per treatment: at harvest; for % damage of roots: drench 1, 14, 27 and 40 days after transplantation
Description: (§1) Tomato plants are transplanted into a field infested with nematodes (Pratylenchus spp.) and treated with the treatments indicated in Table I below 1, 14, 27 and 40 days after transplantation. The products are applied by drenching 100 ml spray solution per plant. Plot size is 24 m^2 with 4 replicates. At harvest (up to 19 weeks later), all tomatoes are collected and weighted. The check is an untreated control.

Meloidogyne [2] = assay: Experiment 6: clay soil cup test, live 2nd stage nematodes from eggs; assay type: in vivo; settings: applied solution 3 ppm, 15 days of incubation
Description: (§2) 50 grams of dry clay soil is put into plastic cups. The soil is treated by adding 50 ml of water containing given concentrations (in ppm) of chemicals to the soil. The soil and water is carefully mixed, and thereafter 1 ml of water containing 10.,000 eggs of Meloidogyne is added. After 15 days of incubation, the samples are analyzed for live 2nd stage nematodes by sieving the clay, and rinsing with tap water. The amount of rinseate is adjusted to 20 ml. From the 20 ml, 3 samples of 1 ml are taken and nematodes counted, using a counting chamber.

[3] = system: nematodes (Meloidogyne spp.); settings: tomato; for % yield increase over check / Total average weight of tomatoes per 100 plants: at harvest; for % average root galling: drench 1, 18, 32 and 46 days after transplantation
Description: as §1, with “(Meloidogyne” for “(Pratylenchus”, “IV” for “I”, “18, 32” for “14, 27”, “46” for “40”, “42.7” for “24”

Meloidogyne [4] = assay: Experiment 5: sandy soil cup test, live 2nd stage nematodes from eggs; assay type: in vivo; settings: applied solution 3 ppm, 15 days of incubation
Description: as §2, with “110 grams” for “50 grams”, “dry sandy” for “dry clay”, “adding 25” for “adding 50”, “carefully mixed” for “carefully mixed,”, “containing 12,000” for “containing 10.,000”, “the sand” for “the clay,”

[5] = system: nematodes (Meloidogyne spp.); settings: tomato; for % yield increase over check / Total average weight of tomatoes per 100 plant in kgr: at harvest; for % root galling: drench 1, 18, 32 and 46 days after transplantation
Description: as §1, with “(Meloidogyne” for “(Pratylenchus”, “III” for “I”, “18, 32” for “14, 27”, “46” for “40”, “36.7” for “24”

[6] = system: nematodes (Pratylenchus spp.); settings: tomato; for % yield increase over check / Total average weight of tomatoes per plant in gr: at harvest; for % damage of roots: drench 1, 14, 27 and 40 days after transplantation
Description: as §1, with “II” for “I”

O=C(O)CN(CCN(CC(=O)O)CC(=O)O)CC(=O)O [EDTA, ethylenediaminetetraacetic acid]
% yield increase over check ([1]; 500 g ai/ha): 12% | Total average weight of tomatoes per treatment ([1]; 500 g ai/ha): 784 kg | % damage of roots ([1]; 500 g ai/ha): 25.8% | % yield increase over check ([1]; 1000 g ai/ha): 17% | Total average weight of tomatoes per treatment ([1]; 1000 g ai/ha): 817 kg | % damage of roots ([1]; 1000 g ai/ha): 22.5% | % reduction of live stages (Meloidogyne [2]): 0.1% | Number of live 2nd stage nematodes (Meloidogyne [2]): 1200 | % yield increase over check ([3]; 500 g ai/ha): 6% | Total average weight of tomatoes per 100 plants ([3]; 500 g ai/ha): 349 kg | % average root galling ([3]; 500 g ai/ha): 34.4% | % yield increase over check ([3]; 1000 g ai/ha): 10% | Total average weight of tomatoes per 100 plants ([3]; 1000 g ai/ha): 360 kg | % average root galling ([3]; 1000 g ai/ha): 23.7% | % reduction of live stages (Meloidogyne [4]): 0.1% | Number of live 2nd stage nematodes (Meloidogyne [4]): 1650

N,N′-ethylenebis(hydroxyphenyl)glycines [EDDHA]
% yield increase over check ([5]; 500 g ai/ha): 13% | Total average weight of tomatoes per 100 plant in kgr ([5]; 500 g ai/ha): 255 kgr | % root galling ([5]; 500 g ai/ha): 35% | % yield increase over check ([5]; 1000 g ai/ha): 17% | Total average weight of tomatoes per 100 plant in kgr ([5]; 1000 g ai/ha): 265 kgr | % root galling ([5]; 1000 g ai/ha): 26.1% | % yield increase over check ([6]; 500 g ai/ha): 11% | Total average weight of tomatoes per plant in gr ([6]; 500 g ai/ha): 3500 gr | % damage of roots ([6]; 500 g ai/ha): 18.5% | % yield increase over check ([6]; 1000 g ai/ha): 18% | Total average weight of tomatoes per plant in gr ([6]; 1000 g ai/ha): 3695 gr | % damage of roots ([6]; 1000 g ai/ha): 13.8% | % reduction of live stages (Meloidogyne [2]): 0.3% | Number of live 2nd stage nematodes (Meloidogyne [2]): 1197 | % reduction of live stages (Meloidogyne [4]): 0.1% | Number of live 2nd stage nematodes (Meloidogyne [4]): 1649

From US9980479B2, “Method of reducing nematode damage” (Syngenta Crop Protection, LLC, priority 2004, dated 2018)
